Laboratory results as given in the NIST ThermoML archive (doi:10.1016/j.tca.2014.07.025).
± gives the expanded uncertainty stated by the source.

Assay: mn = molality of the nth substance listed, in mol/kg
Conditions: 100 kPa, Liquid; for speed of sound: Frequency=3 MHz, Sing-around technique in a fixed-path interferometer; for mass density: Vibrating tube method

NCC(=O)NCC(=O)O [glycylglycine] + O
speed of sound (305.15 K, m1 = 0.00206): 1514.1 ± 1.3 m/s | speed of sound (305.15 K, m1 = 0.00597): 1514.8 ± 1.3 m/s | speed of sound (305.15 K, m1 = 0.00797): 1515.2 ± 1.3 m/s | speed of sound (305.15 K, m1 = 0.01021): 1515.4 ± 1.3 m/s | speed of sound (305.15 K, m1 = 0.02015): 1515.8 ± 1.3 m/s | speed of sound (305.15 K, m1 = 0.05037): 1517.8 ± 1.3 m/s | speed of sound (305.15 K, m1 = 0.1008): 1521.6 ± 1.3 m/s | speed of sound (305.15 K, m1 = 0.2021): 1529.5 ± 1.3 m/s | speed of sound (305.15 K, m1 = 0.2959): 1536 ± 1.3 m/s | speed of sound (305.15 K, m1 = 0.4): 1542.5 ± 1.3 m/s | mass density (305.15 K, m1 = 0.00206): 995.2 ± 0.61 kg/m3 | mass density (305.15 K, m1 = 0.00597): 995.41 ± 0.61 kg/m3 | mass density (305.15 K, m1 = 0.00797): 995.517 ± 0.61 kg/m3 | mass density (305.15 K, m1 = 0.01021): 995.637 ± 0.61 kg/m3 | mass density (305.15 K, m1 = 0.02015): 996.168 ± 0.61 kg/m3 | mass density (305.15 K, m1 = 0.05037): 997.778 ± 0.6 kg/m3 | mass density (305.15 K, m1 = 0.1008): 1000.45 ± 0.6 kg/m3 | mass density (305.15 K, m1 = 0.2021): 1005.75 ± 0.61 kg/m3 | mass density (305.15 K, m1 = 0.2959): 1010.58 ± 0.6 kg/m3 | mass density (305.15 K, m1 = 0.4): 1015.86 ± 0.6 kg/m3 | speed of sound (310.15 K, m1 = 0.00206): 1524.1 ± 1.3 m/s | speed of sound (310.15 K, m1 = 0.00597): 1524.7 ± 1.3 m/s | speed of sound (310.15 K, m1 = 0.00797): 1525.1 ± 1.3 m/s | speed of sound (310.15 K, m1 = 0.01021): 1525.2 ± 1.3 m/s | speed of sound (310.15 K, m1 = 0.02015): 1525.6 ± 1.3 m/s | speed of sound (310.15 K, m1 = 0.05037): 1527.5 ± 1.3 m/s | speed of sound (310.15 K, m1 = 0.1008): 1531.2 ± 1.3 m/s | speed of sound (310.15 K, m1 = 0.2021): 1538.8 ± 1.3 m/s | speed of sound (310.15 K, m1 = 0.2959): 1545.4 ± 1.3 m/s | speed of sound (310.15 K, m1 = 0.4): 1551.6 ± 1.3 m/s | mass density (310.15 K, m1 = 0.00206): 993.513 ± 0.61 kg/m3 | mass density (310.15 K, m1 = 0.00597): 993.721 ± 0.61 kg/m3 | mass density (310.15 K, m1 = 0.00797): 993.827 ± 0.61 kg/m3 | mass density (310.15 K, m1 = 0.01021): 993.946 ± 0.61 kg/m3 | mass density (310.15 K, m1 = 0.02015): 994.474 ± 0.61 kg/m3 | mass density (310.15 K, m1 = 0.05037): 996.073 ± 0.61 kg/m3 | mass density (310.15 K, m1 = 0.1008): 998.723 ± 0.6 kg/m3 | mass density (310.15 K, m1 = 0.2021): 1003.99 ± 0.6 kg/m3 | mass density (310.15 K, m1 = 0.2959): 1008.79 ± 0.6 kg/m3 | mass density (310.15 K, m1 = 0.4): 1014.03 ± 0.6 kg/m3 | speed of sound (315.15 K, m1 = 0.00206): 1532.4 ± 1.3 m/s | speed of sound (315.15 K, m1 = 0.00597): 1532.9 ± 1.3 m/s | speed of sound (315.15 K, m1 = 0.00797): 1533.5 ± 1.3 m/s | speed of sound (315.15 K, m1 = 0.01021): 1533.6 ± 1.3 m/s | speed of sound (315.15 K, m1 = 0.02015): 1534 ± 1.3 m/s | speed of sound (315.15 K, m1 = 0.05037): 1535.8 ± 1.3 m/s | speed of sound (315.15 K, m1 = 0.1008): 1539.4 ± 1.3 m/s | speed of sound (315.15 K, m1 = 0.2021): 1546.9 ± 1.3 m/s | speed of sound (315.15 K, m1 = 0.2959): 1553 ± 1.3 m/s | speed of sound (315.15 K, m1 = 0.4): 1559.3 ± 1.3 m/s | mass density (315.15 K, m1 = 0.00206): 991.618 ± 0.61 kg/m3 | mass density (315.15 K, m1 = 0.00597): 991.824 ± 0.61 kg/m3 | mass density (315.15 K, m1 = 0.00797): 991.929 ± 0.61 kg/m3 | mass density (315.15 K, m1 = 0.01021): 992.047 ± 0.61 kg/m3 | mass density (315.15 K, m1 = 0.02015): 992.568 ± 0.61 kg/m3 | mass density (315.15 K, m1 = 0.05037): 994.147 ± 0.61 kg/m3 | mass density (315.15 K, m1 = 0.1008): 996.764 ± 0.6 kg/m3 | mass density (315.15 K, m1 = 0.2021): 1001.97 ± 0.6 kg/m3 | mass density (315.15 K, m1 = 0.2959): 1006.71 ± 0.6 kg/m3 | mass density (315.15 K, m1 = 0.4): 1011.88 ± 0.6 kg/m3
